Columns and labels:
[1] = system: C6 (Rat Glialtumor Cell or CCL-107) Cell Line; experiment: MTT colorimetric assay for cellular viability on C6 cells; type: cell-based; settings: 48-h incubation
Protocol: Cell lines (C6 and Hep G2) were obtained from the Bioresource Collection and Research Center. All cell culture media and supplements were purchased from Invitrogen, Co. (GIBCO™, Gland Island, N.Y.) unless otherwise specified. All cells were grown in a humid atmosphere of 95% air and 5% CO2 at 37° C. Cell lines were maintained under standard conditions in culture media recommended by the American Type Culture Collection (ATCC), unless otherwise specified. C6 cells were grown in 82.5% Ham's F-10 medium, 15% horse serum and 2.5% FBS. Hep G2 were cultured in 90% MEM (Eagle) with non-essential amino acids and Earle's BSS amd 10% FBS.
All compounds were tested for inhibition of anchorage-dependent tumor cell growth using MTT assay. All compounds were individually solubilized in DMSO and diluted into appropriate growth medium at 2-fold desired final assay concentration. In assays, cells were seeded into 96-well plates and allowed to adhere for 24 h before drugs were introduced. Following a 48-h incubation, compounds and medium were removed by flicking, and each well was treated with 100 μl of 500 μg/ml MTT [3-(4,5-dimethylthiazol-2-yl)-2,5-diphenyltetrazolium bromide] in culture medium. Following a 4-h incubation period to allow metabolism of MTT by mitochondrial dehydrogenases of viable cells to form an insoluble formazan product, the crystals were dissolved in 100 μL of acid-SDS (0.01 N HCl in 10% SDS) by incubating the plate overnight. Absorbance, as a measure of cell viability, was read the following day in an ELISA plate reader at a wavelength of 550 nm. IC50 values were obtained by a linear regression analysis of percentage absorbance vs. log drug concentration.

Male ICR mice = experiment: Acute toxicity study, determination of LD50 values; type: in vivo; settings: for LD50 / Survival at 2,000 mg/Kg: male ICR mice; for LD50: single intraperitoneal injection, observed for three days; for Acute symptoms observed: mouse, in vivo, ip; for Survival at 2,000 mg/Kg: i.p., 2,000 mg/Kg, three-day observation
Protocol: (§1) Leflunomide, its metabolite (A77 1726), and several isoxazole derivatives were chosen for the acute toxicity study. Male ICR mice were used for the intraperitoneal injection of each compound at different doses according to the following procedure: Small male ICR mice are chosen, each weighing 17–23 grams. They are equally classified at random into individual groups, 3–5 mice per group. A predetermined dose of each selected compound in minimum DMSO/liquid paraffin is injected once intraperitoneally to mice in each group. Toxic reaction is observed for three days, then the acute half lethal dose (LD50) is determined.

[2] = Acute toxicity study, determination of LD50 values; type: in vivo; settings: male, ICR, mouse, in vivo, ip
Protocol: as §1

[3] = system: HT29 (adenocarcinoma of the colon); experiment: SRB cell proliferation assay on HT-29 cells; type: cell-based, human; settings: for Cell viability, Reading (avg of 3): HT-29, SRB reading at 515 nm, 5d exposure
Protocol: The cell lines used were HT29 (adenocarcinoma of the colon). The tumor cells were grown at 37° C. in a humidified atmosphere (5% CO2) as monolayer cultures in RPMI 1640 medium supplemented with 10% FCS. Cells were trypsinized upon passage and maintained routinely.
UTL-5b and UTL-5 were dissolved in DMSO as 4 mM stock solutions and then further diluted in 1% carboxymethyl cellulose.
The SRB assay is routinely employed to measure cell proliferation by the US-NCI 60 cell line screen. Exponentially growing cells were harvested by trypsination, counted and seeded into 96 well plates (2.000 cells/well). […] Total protein mass was determined after 5d of continuous drug exposure by addition of Sulforhodamine B (0.4%) solution. Readings were read at 515 nm, as cell viability, and IC50 values were estimated based on the results.

| SMILES | IC50 [1] [µM] | LD50 (Male ICR mice) | Acute symptoms observed (Male ICR mice) | further results |
| --- | --- | --- | --- | --- |
| COc1cc(NC(=O)c2cc(C)on2)cc(OC)c1OC [UTL-5i] | 1.18 | – | – | – |
| C/C(O)=C(\C#N)C(=O)Nc1ccc(C(F)(F)F)cc1 [A77 1726, reference compound] | 0.159 | 200 mg/kg | Cyanosis and deep necrosis | – |
| Cc1cc(C(=O)Nc2cccc(Cl)c2)no1 [UTL-5c] | 0.163 | – | – | – |
| Cc1cc(C(=O)Nc2ccccc2)no1 [UTL-5a] | 1.37 | >2,000 mg/Kg | agitation | Survival at 2,000 mg/Kg (Male ICR mice): all mice were alive |
| Cc1oncc1C(=O)Nc1ccc(C(F)(F)F)cc1 [Leflunomide, N-(4-trifluoromethylphenyl)-4-carboxamidyl-5-methylisoxazole, reference compound] | – | – | Cyanosis and deep necrosis | IC50 ([1]; Rattus norvegicus): 0.162 µM; LD50 at 3 days [2]: 250 mg/kg |
| CCOC(=O)CC[C@H](NC(=O)c1ccc(NC(=O)c2cc(C)on2)cc1)C(=O)OCC [UTL-5l] | 0.16 | – | – | – |
| Cc1cc(C(=O)Nc2ccc(Cl)cc2Cl)no1 [UTL-5g] | 0.18 | >2,000 mg/Kg | agitation | Survival at 2,000 mg/Kg (Male ICR mice): all mice were alive |
| COc1ccc(NC(=O)c2cc(C)on2)cc1 [UTL-5h] | 0.35 | – | – | – |
| Cc1cc(C(=O)Nc2ccc(F)cc2)no1 [UTL-5k] | > 1000 | – | – | – |
| Cc1cc(C(=O)Nc2cccc(C(F)(F)F)c2)no1 [UTL-5e] | 0.2 | – | – | – |
| Cc1cc(C(=O)Nc2ccc(Cl)cc2)no1 [UTL-5d] | 0.81 | 1,800 mg/Kg | – | Activity in human colon cancer cell line HT29 (in words) ([3]; HT29, SRB assay): very good activity; Cell viability, Reading (avg of 3) ([3]; Conc. 0.001 μM): 1.238; Cell viability, Reading (avg of 3) ([3]; Conc. 0.002 μM): 1.014; Cell viability, Reading (avg of 3) ([3]; Conc. 0.01 μM): 0.886; Cell viability, Reading (avg of 3) ([3]; Conc. 0.05 μM): 0.914; Cell viability, Reading (avg of 3) ([3]; Conc. 0.1 μM): 0.864; Cell viability, Reading (avg of 3) ([3]; Conc. 0.5 μM): 0.893; Cell viability, Reading (avg of 3) ([3]; Conc. 1 μM): 0.436; Cell viability, Reading (avg of 3) ([3]; Conc. 10 μM): 0.314; Cell viability, Reading (avg of 3) ([3]; Conc. 50 μM): 0.164; Cell viability, Reading (avg of 3) ([3]; Conc. 100 μM): 0.13; IC50 ([3]; HT-29 cells, SRB assay, 5d continuous exposure, estimated from readings): 700 nM |
| Cc1cc(C(=O)Nc2ccc(C(F)(F)F)cc2)no1 [UTL-5f] | 0.17 | – | – | – |
| Cc1cc(C(=O)Nc2ccc(C(=O)O)cc2)no1 [UTL-5j] | 0.19 | >2,000 mg/Kg | agitation | Survival at 2,000 mg/Kg (Male ICR mice): all mice were alive |

Source: patent publication US7125902B2, “Methods, compounds, and diagnostics for cancer treatment” (priority 2004, dated 2006)
